Earlier results in patent publication US20220168301A1, “METHODS FOR TREATING SYMPTOMATIC ORTHOSTATIC HYPOTENSION” (Cerecor Inc, priority 2019, published 2022).

Tested on: patients with nOH
Conditions: Phase III clinical trials; cited from earlier work

N[C@H](C(=O)O)[C@H](O)c1ccc(O)c(O)c1 [droxidopa, L-threo-3,4-dihydroxyphenyl-serine]
Standing systolic blood pressure: increase in standing systolic blood pressure | Symptoms of nOH (dizziness, lightheadedness or feeling about to faint): significant improvement in symptoms of nOH
